{"source": "patent US20070082903A1", "about": "“Remedy for rheumatoid arthritis” (priority 2003, published 2007)", "system": "patients with rheumatoid arthritis", "assay": "administration to patients with rheumatoid arthritis, ACR criterion evaluation at 16 weeks", "type": "in vivo, human", "details": "for improvement rate: SF-36 mental scale / improvement rate: SF-36 physical scale / improvement rate: erythrocyte sedimentation rate / improvement rate: patient's self-assessed physical functions / improvement rate: reduction of swollen joint count / improvement rate: reduction of tender joint count / improvement rate: patient's assessment of pain / improvement rate: patient's global assessment of disease activity / improvement rate: physician's global assessment of disease activity / improvement rate: CRP: 16 weeks vs initial value; for improvement rate: patient's assessment of pain / improvement rate: patient's global assessment of disease activity / improvement rate: physician's global assessment of disease activity: VAS; for improvement rate: CRP: in % (unit assumed)", "excerpt": "When 20% or more improvement is observed in the items 1) and 2) and 20% or more improvement is observed in at least three of the five items 3) to 7), the therapeutic effect is rated as “20% improvement on the criterion established by the American College of Rheumatology” (20% improvement on the ACR criterion). • 1) Reduction of tender joint count. • 2) Reduction of swollen joint count. • 3) Patient's global assessment of disease activity. • 4) Physician's global assessment of disease activity. • 5) Patient's assessment of pain. • 6) Patient's self-assessed physical functions. • 7) CRP or erythrocyte sedimentation rate.\nSimilarly, when 50% or more improvement is observed in the items 1) and 2) and 50% or more improvement is observed in at least three of the five items 3) to 7), the therapeutic effect is rated as “50% improvement on the criterion established by the American College of Rheumatology” (50% improvement on the ACR criterion).\nSMP-114 was orally administered once a day after a meal to patients with rheumatoid arthritis who had been treated with 1 to 5 DMARDs other than SMP-114 (to whom these DMARDs seemed to be non-administrable because of their side effects, or for whom these DMARDs seemed to be ineffective or insufficiently effective). As to the dose, a placebo, 40 mg/day, 80 mg/day and 120 mg/day were employed (about 50 cases per group). […] SMP-114 was continuously administered to patients in whom the standard had been reached, until the 24th week while keeping the test blind. Sixteen weeks after the start of the administration, the placebo group, 40 mg/day group, 80 mg/day group and 120 mg/day group were compared with respect to the proportion of patients satisfying the requirement “20% improvement on the criterion established by the American College of Rheumatology”, whereby the efficacy of the SMP-114 was evaluated (in the present example, the following ratings were given on a visual analogue scale (VAS): 3) a patient's global assessment of disease activity, 4) a physician's global assessment of disease activity, and 5) a patient's assessment of pain, on the ACR criterion.).\nWhen the following improvements are observed on the above-mentioned criterion of improvement established by the American College of Rheumatology, it is judged that “50% improvement on the criterion established by the American College of Rheumatology” (50% improvement on the ACR criterion) has been achieved: 50% or more improvement is observed in the items 1) and 2) and 50% or more improvement is observed in at least three of the five items 3) to 7). The efficacy of SMP-114 may be evaluated on the basis of the proportion of patients satisfying the requirement “50% improvement on the criterion established by the American College of Rheumatology”.\nThe efficacy of SMP-114 may be evaluated on the basis of improvement rates of the above-mentioned rating items on the criterion established by the American College of Rheumatology and QOL measure (SF-36) (Ware, J E. & Sherbourne C D., “The MOS 36-Item Short-Form Health Survey (SF-36); 1. Conceptual 10 Framework and Item Selection.”, Med Care 1981; 18:806). The improvement rates may be expressed as the rates of change calculated on the basis of the difference between values obtained 16 weeks after the start of the administration and initial values obtained before the start of the administration.\nStratification analysis was carried out by employing as an indication the history of treatment with disease modifying antirheumatic drugs (DMARDs) other than SMP-114, i.e., the number of the DMARDs other than SMP-114 which had been used. There are shown below the results of the analysis carried out by dividing patients into patients with rheumatoid arthritis who had been treated with one or two DMARDs other than SMP-114 (group A) and patients with rheumatoid arthritis who had been treated with 3 to 5 DMARDs other than SMP-114 (group B). […]", "key": {"[1]": {"details": "40 mg/day, 16 weeks, erythrocyte sedimentation rate used as item 7)"}, "[2]": {"details": "80 mg/day, 16 weeks, erythrocyte sedimentation rate used as item 7)"}, "[3]": {"details": "120 mg/day, 16 weeks, erythrocyte sedimentation rate used as item 7)"}, "[4]": {"details": "total active groups, patient's assessment of pain (VAS) < 67"}, "[5]": {"details": "total active groups, patient's assessment of pain (VAS) ≧ 67"}, "[6]": {"details": "total active groups, physician's global assessment (VAS) < 63"}, "[7]": {"details": "total active groups, physician's global assessment (VAS) ≧ 63"}}}
{"molecule": "C[C@@H](c1ccc(-c2ccccc2)c(F)c1)c1cc(/N=C(/N)N2CCOCC2)on1", "note": "[SMP-114, 3-[(1S)-1-(2-fluorobiphenyl-4-yl)ethyl]-5-{[amino(morpholin-4-yl)methylene]amino}isoxazole]", "values": [{"measurement": "improvement rate: SF-36 mental scale", "setting": "40 mg/day", "result": 43.7, "unit": "%"}, {"measurement": "improvement rate: SF-36 physical scale", "setting": "40 mg/day", "result": 33.3, "unit": "%"}, {"measurement": "improvement rate: erythrocyte sedimentation rate", "setting": "40 mg/day", "result": 3.2, "unit": "%"}, {"measurement": "improvement rate: patient's self-assessed physical functions", "setting": "40 mg/day", "result": 4.3, "unit": "%"}, {"measurement": "improvement rate: reduction of swollen joint count", "setting": "40 mg/day", "result": 22.3, "unit": "%"}, {"measurement": "improvement rate: reduction of tender joint count", "setting": "40 mg/day", "result": 16.0, "unit": "%"}, {"measurement": "improvement rate: patient's assessment of pain", "setting": "40 mg/day", "result": 17.1, "unit": "%"}, {"measurement": "improvement rate: patient's global assessment of disease activity", "setting": "40 mg/day", "result": 19.3, "unit": "%"}, {"measurement": "improvement rate: physician's global assessment of disease activity", "setting": "40 mg/day", "result": 12.7, "unit": "%"}, {"measurement": "improvement rate: CRP", "setting": "40 mg/day", "result": "−12.3"}, {"measurement": "ACR20 improvement rate", "setting": "40 mg/day, 16 weeks, CRP used as item 7)", "result": 38.2, "unit": "%"}, {"measurement": "ACR20 improvement rate", "setting": "[1]", "result": 38.2, "unit": "%"}, {"measurement": "ACR50 improvement rate", "setting": "[1]", "result": 10.9, "unit": "%"}, {"measurement": "Number of ACR50 responders", "setting": "40 mg/day, 55 patients", "result": 6}, {"measurement": "Number of ACR20 responders", "setting": "40 mg/day, 55 patients, CRP used", "result": 21}, {"measurement": "Number of ACR20 responders", "setting": "40 mg/day, 55 patients, erythrocyte sedimentation rate used", "result": 21}, {"measurement": "improvement rate: SF-36 mental scale", "setting": "80 mg/day", "result": 46.1, "unit": "%"}, {"measurement": "improvement rate: SF-36 physical scale", "setting": "80 mg/day", "result": 28.8, "unit": "%"}, {"measurement": "improvement rate: erythrocyte sedimentation rate", "setting": "80 mg/day", "result": 4.0, "unit": "%"}, {"measurement": "improvement rate: patient's self-assessed physical functions", "setting": "80 mg/day", "result": 10.6, "unit": "%"}, {"measurement": "improvement rate: reduction of swollen joint count", "setting": "80 mg/day", "result": 18.7, "unit": "%"}, {"measurement": "improvement rate: reduction of tender joint count", "setting": "80 mg/day", "result": 27.6, "unit": "%"}, {"measurement": "improvement rate: patient's assessment of pain", "setting": "80 mg/day", "result": 16.5, "unit": "%"}, {"measurement": "improvement rate: patient's global assessment of disease activity", "setting": "80 mg/day", "result": 20.5, "unit": "%"}, {"measurement": "improvement rate: physician's global assessment of disease activity", "setting": "80 mg/day", "result": 21.5, "unit": "%"}, {"measurement": "improvement rate: CRP", "setting": "80 mg/day", "result": "−26.4"}, {"measurement": "ACR20 improvement rate", "setting": "80 mg/day, 16 weeks, CRP used as item 7)", "result": 34.5, "unit": "%"}, {"measurement": "ACR20 improvement rate", "setting": "[2]", "result": 36.4, "unit": "%"}, {"measurement": "ACR50 improvement rate", "setting": "[2]", "result": 10.9, "unit": "%"}, {"measurement": "Number of ACR50 responders", "setting": "80 mg/day, 55 patients", "result": 6}, {"measurement": "Number of ACR20 responders", "setting": "80 mg/day, 55 patients, CRP used", "result": 19}, {"measurement": "Number of ACR20 responders", "setting": "80 mg/day, 55 patients, erythrocyte sedimentation rate used", "result": 20}, {"measurement": "improvement rate: SF-36 mental scale", "setting": "120 mg/day", "result": 44.8, "unit": "%"}, {"measurement": "improvement rate: SF-36 physical scale", "setting": "120 mg/day", "result": 30.2, "unit": "%"}, {"measurement": "improvement rate: erythrocyte sedimentation rate", "setting": "120 mg/day", "result": "−7.5", "unit": "%"}, {"measurement": "improvement rate: patient's self-assessed physical functions", "setting": "120 mg/day", "result": "−8.7", "unit": "%"}, {"measurement": "improvement rate: reduction of swollen joint count", "setting": "120 mg/day", "result": 19.7, "unit": "%"}, {"measurement": "improvement rate: reduction of tender joint count", "setting": "120 mg/day", "result": 22.7, "unit": "%"}, {"measurement": "improvement rate: patient's assessment of pain", "setting": "120 mg/day", "result": 17.1, "unit": "%"}, {"measurement": "improvement rate: patient's global assessment of disease activity", "setting": "120 mg/day", "result": 14.2, "unit": "%"}, {"measurement": "improvement rate: physician's global assessment of disease activity", "setting": "120 mg/day", "result": 24.1, "unit": "%"}, {"measurement": "improvement rate: CRP", "setting": "120 mg/day", "result": "−98.6"}, {"measurement": "ACR20 improvement rate", "setting": "120 mg/day, 16 weeks, CRP used as item 7)", "result": 37.0, "unit": "%"}, {"measurement": "ACR20 improvement rate", "setting": "[3]", "result": 37.0, "unit": "%"}, {"measurement": "ACR50 improvement rate", "setting": "[3]", "result": 13.0, "unit": "%"}, {"measurement": "Number of ACR50 responders", "setting": "120 mg/day, 54 patients", "result": 7}, {"measurement": "Number of ACR20 responders", "setting": "120 mg/day, 54 patients, CRP used", "result": 20}, {"measurement": "Number of ACR20 responders", "setting": "120 mg/day, 54 patients, erythrocyte sedimentation rate used", "result": 20}, {"measurement": "ACR20 improvement rate", "setting": "total active groups (40, 80, 120 mg/day), Group A, DMARDs treatment history = 1-2 drugs", "result": 44, "unit": "%"}, {"measurement": "ACR20 improvement rate", "setting": "total active groups (40, 80, 120 mg/day), Group B, DMARDs treatment history = 3-5 drugs", "result": 32, "unit": "%"}, {"measurement": "ACR20 responders / cases", "setting": "total active groups, Group A, DMARDs treatment history = 1-2 drugs", "result": "32/72"}, {"measurement": "ACR20 responders / cases", "setting": "total active groups, Group B, DMARDs treatment history = 3-5 drugs", "result": "29/92"}, {"measurement": "ACR20 improvement rate", "setting": "[4]", "result": 50, "unit": "%"}, {"measurement": "ACR20 responders / cases", "setting": "[4]", "result": "36/72"}, {"measurement": "ACR20 improvement rate", "setting": "[5]", "result": 27, "unit": "%"}, {"measurement": "ACR20 responders / cases", "setting": "[5]", "result": "25/92"}, {"measurement": "ACR20 improvement rate", "setting": "[6]", "result": 42, "unit": "%"}, {"measurement": "ACR20 responders / cases", "setting": "[6]", "result": "31/74"}, {"measurement": "ACR20 improvement rate", "setting": "[7]", "result": 33, "unit": "%"}, {"measurement": "ACR20 responders / cases", "setting": "[7]", "result": "30/90"}]}
